# Reference: patent publication US20230295157A1, “3-(1H-IMIDAZOL-2-YL)-2,3,8,8A-TETRAHYDROINDOLIZIN-5(1H)-ONE DERIVATIVES USEFUL AS FACTOR XIA INHIBITORS” (JANSSEN PHARMACEUTICA NV, priority 2020, published 2023)
# Read-outs that look alike come from different tables or passages of the source.
# What was measured:
# human plasma kallikrein = human plasma kallikrein (Homo sapiens (Human), UniProt P03952); test: Kallikrein inhibition assay (FLINT) utilizing a quenched AMC peptide substrate; format: biochemical; conditions: 30 min preincubation, read-out: Kallikrein Kin Inh IC50
# Method in brief: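 Fluorogenic Z-Gly-Pro-Arg-AMC cleavage (50 μM substrate, 2 nM kallikrein, Tris pH 7.5, CaCl2, BSA, CHAPS, 2% DMSO) read kinetically at 340/440 nm for 30 min after 30-min compound pre-incubation. Compounds in 11-point 3-fold series from 1 μM; percent inhibition fitted to four-parameter equation for IC50.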
# Factor XIa = Factor XIa (Homo sapiens (Human), UniProt P03951); test: Factor XIa inhibition assay (FLINT) utilizing a fluorophore-quencher pair peptide substrate; format: biochemical; conditions: 30 min preincubation, kinetic reads over 30 min, read-out: FXIa Kin Inh IC50
# Method in brief: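 FXIa ([…]) preincubated 30 min with compound (11-point 3-fold dilution, top 100 nM, 2% DMSO), then 15 μM quenched FXI Arg146-based peptide added; Tris pH 7.5, CaCl2, BSA, CHAPS. Fluorescence 485/520 nm read kinetically every 5 min over 30 min at RT; IC50 by 4-parameter fit.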
# [1] = kinetic reads over 30 min, Z-Gly-Pro-Arg-AMC substrate 50 μM
# [2] = 5Fam-KLTRAETV-K5Tamra substrate 15 μM
# [3] = 5Fam-[…]-K5Tamra substrate 15 μM
# Chain of human plasma kallikrein (P03952 391-638): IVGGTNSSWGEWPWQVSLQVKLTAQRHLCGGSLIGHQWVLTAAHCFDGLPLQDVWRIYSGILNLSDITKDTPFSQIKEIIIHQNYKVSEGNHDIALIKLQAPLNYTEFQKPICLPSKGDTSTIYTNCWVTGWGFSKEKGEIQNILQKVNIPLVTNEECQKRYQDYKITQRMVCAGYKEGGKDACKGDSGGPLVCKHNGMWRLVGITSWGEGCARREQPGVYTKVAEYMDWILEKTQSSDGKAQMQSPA
# Chain of human plasma kallikrein (P03952 20-390 partner): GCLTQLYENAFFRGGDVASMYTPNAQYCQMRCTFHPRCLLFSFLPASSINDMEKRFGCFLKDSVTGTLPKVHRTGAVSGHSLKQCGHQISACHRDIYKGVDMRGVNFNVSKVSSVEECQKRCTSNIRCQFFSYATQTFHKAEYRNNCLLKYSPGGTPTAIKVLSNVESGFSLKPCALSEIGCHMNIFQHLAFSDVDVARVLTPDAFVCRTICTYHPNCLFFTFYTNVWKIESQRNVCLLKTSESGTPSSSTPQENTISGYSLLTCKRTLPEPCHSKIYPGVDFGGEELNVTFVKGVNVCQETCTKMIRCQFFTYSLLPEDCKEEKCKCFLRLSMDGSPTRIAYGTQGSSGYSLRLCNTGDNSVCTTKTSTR
# Chain of Factor XIa (P03951 388-625): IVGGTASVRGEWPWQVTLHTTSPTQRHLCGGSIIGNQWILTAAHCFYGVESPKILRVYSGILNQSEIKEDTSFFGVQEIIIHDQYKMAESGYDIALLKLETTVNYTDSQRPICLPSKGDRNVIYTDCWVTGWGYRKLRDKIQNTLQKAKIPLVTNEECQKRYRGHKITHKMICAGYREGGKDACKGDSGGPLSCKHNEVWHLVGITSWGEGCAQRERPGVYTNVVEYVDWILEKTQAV
# Chain of Factor XIa (P03951 19-387 partner): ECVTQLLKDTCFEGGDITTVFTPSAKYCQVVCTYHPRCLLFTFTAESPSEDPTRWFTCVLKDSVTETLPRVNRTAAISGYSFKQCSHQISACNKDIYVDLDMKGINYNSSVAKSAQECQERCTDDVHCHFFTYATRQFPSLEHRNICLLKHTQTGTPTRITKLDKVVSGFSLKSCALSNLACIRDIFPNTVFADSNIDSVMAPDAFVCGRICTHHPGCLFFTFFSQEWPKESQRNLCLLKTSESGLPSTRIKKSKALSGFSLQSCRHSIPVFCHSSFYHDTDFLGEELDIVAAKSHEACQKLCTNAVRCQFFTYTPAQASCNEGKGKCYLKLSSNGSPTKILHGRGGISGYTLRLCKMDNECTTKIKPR
Compound,IC50 (human plasma kallikrein; [1]),IC50 (Factor XIa; [2]),IC50 (Factor XIa; [3]),"IC50 (human plasma kallikrein; μM, kinetic reads)"
"O=C1C=C(c2c(-n3cnnn3)ccc(Cl)c2F)C[C@H]2CC[C@H](c3nc(Cl)c(-c4ccnc(C5(O)CC5)c4)[nH]3)N12 [Example 178, (3R,8aR)-7-(3-chloro-2-fluoro-6-(1H-tetrazol-1-yl)phenyl)-3-(4-chloro-5-(2-(1-hydroxycyclopropyl)pyridin-4-yl)-1H-imidazol-2-yl)-2,3,8,8a-tetrahydroindolizin-5(1H)-one]",0.0011 µM,0.4 nM,–,–
"O=C1C=C(c2c(-n3cnnn3)ccc(Cl)c2F)C[C@H]2CC[C@@H](c3ncc(-c4ccnc(OC[C@@H]5COCCO5)c4F)[nH]3)N12 (single isomer, unassigned) [Example 157, (3*S,8aR)-3-(5-(2-(((S)-1,4-dioxan-2-yl)methoxy)-3-fluoropyridin-4-yl)-1H-imidazol-2-yl)-7-(3-chloro-2-fluoro-6-(1H-tetrazol-1-yl)phenyl)-2,3,8,8a-tetrahydroindolizin-5(1H)-one]",0.0068 µM,2 nM,–,–
"CCOC(=O)Nc1cnccc1-c1c[nH]c([C@@H]2CC[C@H]3CC(c4c(-n5cnnn5)ccc(Cl)c4F)=CC(=O)N32)n1 [Example 263, Ethyl N-[4-[2-[(3S,8aS)-7-[3-chloro-2-fluoro-6-(tetrazol-1-yl)phenyl]-5-oxo-2,3,8,8a-tetrahydro-1H-indolizin-3-yl]-1H-imidazol-4-yl]-3-pyridyl]carbamate]",0.0337 µM,2.3 nM,–,–
"[2H]c1nc(C2CCC3CC(c4c(-n5cnnn5)ccc(Cl)c4F)=CC(=O)N32)[nH]c1-c1ccc(N)nc1F (stereo in doubt) [Example 154, (3S,8aR)-3-[5-(6-amino-2-fluoro-3-pyridyl)-4-deuterio-1H-imidazol-2-yl]-7-[3-chloro-2-fluoro-6-(tetrazol-1-yl)phenyl]-2,3,8,8a-tetrahydro-1H-indolizin-5-one]",0.0057 µM,–,0.4 nM,–
"CC1(O)CCc2c(-c3cnc(C4CCC5CC(c6c(-n7cnnn7)ccc(Cl)c6F)=CC(=O)N54)[nH]3)ccnc21 (stereo not drawn) [Example 95, 7-(3-Chloro-2-fluoro-6-(1H-tetrazol-1-yl)phenyl)-3-(5-(7-hydroxy-7-methyl-6,7-dihydro-5H-cyclopenta[b]pyridin-4-yl)-1H-imidazol-2-yl)-2,3,8,8a-tetrahydroindolizin-5(1H)-one]",0.0239 µM,3.5 nM,–,–
"O=C1C=C(c2c(-n3cnnn3)ccc(Cl)c2F)C[C@H]2CC[C@@H](c3ncc(-c4ccnc(COP(=O)(O)O)c4F)[nH]3)N12 [Example 61, (4-(2-((3S,8aR)-7-(3-chloro-2-fluoro-6-(1H-tetrazol-1-yl)phenyl)-5-oxo-1,2,3,5,8,8a-hexahydroindolizin-3-yl)-1H-imidazol-5-yl)-3-fluoropyridin-2-yl)methyl dihydrogen phosphate]",0.0444 µM,0.5 nM,–,–
"O=C1C=C(c2c(-n3cnnn3)ccc(Cl)c2F)C[C@H]2CC[C@@H](c3ncc(-c4ccnc(-c5ncc[nH]5)c4F)[nH]3)N12 [Example 2, (3S,8aR)-7-[3-Chloro-2-fluoro-6-(tetrazol-1-yl)phenyl]-3-[5-[3-fluoro-2-(1H-imidazol-2-yl)-4-pyridyl]-1H-imidazol-2-yl]-2,3,8,8a-tetrahydro-1H-indolizin-5-one]",0.0093 µM,1.9 nM,–,–
"CNc1ncccc1-c1cnc([C@@H]2CCC3CC(c4c(-n5cnnn5)ccc(Cl)c4F)=CC(=O)N32)[nH]1 (stereo partly drawn) [Example 260, (3S)-7-[3-Chloro-2-fluoro-6-(tetrazol-1-yl)phenyl]-3-[4-[2-(methylamino)-3-pyridyl]-1H-imidazol-2-yl]-2,3,8,8a-tetrahydro-1H-indolizin-5-one]",0.462 µM,> 100 nM,–,–
"N#CCc1nccc(-c2c[nH]c([C@@H]3CC[C@@H]4CC(c5c(-n6cnnn6)ccc(Cl)c5F)=CC(=O)N43)n2)c1F [Example 176, 2-(4-(2-((3S,8aR)-7-(3-chloro-2-fluoro-6-(1H-tetrazol-1-yl)phenyl)-5-oxo-1,2,3,5,8,8a-hexahydroindolizin-3-yl)-1H-imidazol-4-yl)-3-fluoropyridin-2-yl)acetonitrile]",0.0285 µM,4 nM,–,–
"NC(=O)c1cc(-c2nc([C@@H]3CCC4CC(c5c(-n6cnnn6)ccc(Cl)c5F)=CC(=O)N43)[nH]c2Cl)cs1 (stereo partly drawn) [Example 218, 4-(5-Chloro-2-((3S)-7-(3-chloro-2-fluoro-6-(1H-tetrazol-1-yl)phenyl)-5-oxo-1,2,3,5,8,8a-hexahydroindolizin-3-yl)-1H-imidazol-4-yl)thiophene-2-carboxamide]",0.0007 µM,0.3 nM,–,–
"O=C1C=C(c2c(-n3cnnn3)ccc(Cl)c2F)C[C@H]2CC[C@@H](c3ncc(-c4ccnc(N5CC6(COC6)C5)c4F)[nH]3)N12 (single isomer, unassigned) [Example 108, (3S*,8aR)-7-(3-chloro-2-fluoro-6-(1H-tetrazol-1-yl)phenyl)-3-(5-(3-fluoro-2-(2-oxa-6-azaspiro[3.3]heptan-6-yl)pyridin-4-yl)-1H-imidazol-2-yl)-2,3,8,8a-tetrahydroindolizin-5(1H)-one]",0.0057 µM,–,2.9 nM,–
"O=C1C=C(c2c(-n3cnnn3)ccc(Cl)c2F)C[C@H]2CC[C@@H](c3ncc(-c4c[nH]cc4C(F)(F)F)[nH]3)N12 [Example 230, (3S,8aR)-7-(3-Chloro-2-fluoro-6-(1H-tetrazol-1-yl)phenyl)-3-(5-(4-(trifluoromethyl)-1H-pyrrol-3-yl)-1H-imidazol-2-yl)-2,3,8,8a-tetrahydroindolizin-5(1H)-one]",0.0111 µM,0.4 nM,–,–
"O=C1C=C(c2cc(Cl)ccc2-n2cc(C(F)(F)F)nn2)C[C@H]2CC[C@@H](c3ncc(-c4ccc5[nH]c(=O)ccc5c4)[nH]3)N12 [Example 101, 6-(2-((3S,8aR)-7-(5-chloro-2-(4-(trifluoromethyl)-1H-1,2,3-triazol-1-yl)phenyl)-5-oxo-1,2,3,5,8,8a-hexahydroindolizin-3-yl)-1H-imidazol-5-yl)quinolin-2(1H)-one]",0.0019 µM,0.6 nM,–,–

# Next, values leading:
IC50 (human plasma kallikrein; [1]),IC50 (Factor XIa; [2]),IC50 (Factor XIa; [3]),"IC50 (human plasma kallikrein; μM, kinetic reads)",Compound
0.0136 µM,17.1 nM,–,–,"Cc1cc2c(-c3cnc([C@@H]4CCC5CC(c6c(-n7cnnn7)ccc(Cl)c6F)=CC(=O)N54)[nH]3)c[nH]c2cn1 (stereo partly drawn) [Example 381, (3S)-7-(3-chloro-2-fluoro-6-(1H-tetrazol-1-yl)phenyl)-3-(5-(5-methyl-1H-pyrrolo[2,3-c]pyridin-3-yl)-1H-imidazol-2-yl)-2,3,8,8a-tetrahydroindolizin-5(1H)-one]"
0.0156 µM,24.4 nM,–,–,"Cn1cc(NC(=O)C2CC2)c(-c2c[nH]c([C@@H]3CC[C@H]4CC(c5c(-n6cnnn6)ccc(Cl)c5F)=CC(=O)N43)n2)n1 [Example 275, N-(3-(2-((3S,8aS)-7-(3-Chloro-2-fluoro-6-(1H-tetrazol-1-yl)phenyl)-5-oxo-1,2,3,5,8,8a-hexahydroindolizin-3-yl)-1H-imidazol-4-yl)-1-methyl-1H-pyrazol-4-yl)cyclopropanecarboxamide]"
0.61 µM,87 nM,–,–,"Nc1ccc(-c2c[nH]c([C@@H]3CCC4CC(c5c(-c6cnc[nH]6)ccc(Cl)c5F)=CC(=O)N43)n2)c(F)n1 (stereo partly drawn) [Example 364, (3S)-3-(4-(6-Amino-2-fluoropyridin-3-yl)-1H-imidazol-2-yl)-7-(3-chloro-2-fluoro-6-(1H-imidazol-5-yl)phenyl)-2,3,8,8a-tetrahydroindolizin-5(1H)-one]"
0.001 µM,0.3 nM,–,–,"O=C1Nc2ccc(-c3cnc([C@@H]4CCC5CC(c6c(-n7cnnn7)ccc(Cl)c6F)=CC(=O)N54)[nH]3)cc2CO1 (stereo partly drawn) [Example 297, 6-(2-((3S)-7-(3-Chloro-2-fluoro-6-(1H-tetrazol-1-yl)phenyl)-5-oxo-1,2,3,5,8,8a-hexahydroindolizin-3-yl)-1H-imidazol-5-yl)-1H-benzo[d][1,3]oxazin-2(4H)-one]"
–,> 100 nM,–,> 1 µM,"Cn1cnc(-c2c[nH]c([C@@H]3CC[C@H]4CC(c5c(-n6cnnn6)ccc(Cl)c5F)=CC(=O)N43)n2)n1 [Example 274, (3S,8aS)-7-(3-Chloro-2-fluoro-6-(1H-tetrazol-1-yl)phenyl)-3-(4-(1-methyl-1H-1,2,4-triazol-3-yl)-1H-imidazol-2-yl)-2,3,8,8a-tetrahydroindolizin-5(1H)-one]"
0.492 µM,–,> 200 nM,–,"CN(C)c1ccccc1-c1c[nH]c([C@@H]2CCC3CC(c4c(-n5cnnn5)ccc(Cl)c4F)=CC(=O)N32)n1 (stereo partly drawn) [Example 289, (3S)-7-(3-Chloro-2-fluoro-6-(1H-tetrazol-1-yl)phenyl)-3-(4-(2-(dimethylamino)phenyl)-1H-imidazol-2-yl)-2,3,8,8a-tetrahydroindolizin-5(1H)-one]"
0.0019 µM,0.3 nM,–,–,"COC(=O)Nc1ccc(-c2cnc([C@@H]3CC[C@H]4CC(c5c(-n6cnnn6)ccc(Cl)c5F)=CC(=O)N43)[nH]2)cc1 [Example 340, Methyl (4-(2-((3S,8aS)-7-(3-chloro-2-fluoro-6-(1H-tetrazol-1-yl)phenyl)-5-oxo-1,2,3,5,8,8a-hexahydroindolizin-3-yl)-1H-imidazol-5-yl)phenyl)carbamate]"
0.0354 µM,33.3 nM,–,–,"CC12CC[C@@H](c3ncc(-c4ccnc(CO)c4F)[nH]3)N1C(=O)C=C(c1c(-n3cnnn3)ccc(Cl)c1F)C2 (stereo partly drawn) [Example 391, (3S)-7-(3-chloro-2-fluoro-6-(1H-tetrazol-1-yl)phenyl)-3-(5-(3-fluoro-2-(hydroxymethyl)pyridin-4-yl)-1H-imidazol-2-yl)-8a-methyl-2,3,8,8a-tetrahydroindolizin-5(1H)-one]"
